The results in this text go back to patent US7495023B2, “Thio semicarbazone and semicarbozone inhibitors of cysteine proteases and methods of their use” (The Regents of the University of California, priority 2002, dated 2009).

The target in data set [1] is T. cruzi cathepsin L-like protease (cruzain) (Trypanosoma cruzi, UniProt P25779). In words: biochemical. As to the method: IC50 Determinations. Inhibitors were screened for effectiveness against the T. cruzi cathepsin L-like protease (cruzain) using purified recombinant protein. Cruzain (1 nM) was incubated with 20-50000 nM inhibitor in 100 mM sodium acetate-5 mM DTT buffer (pH 5.50, buffer A) for 5 min at room temperature. […] The increase in fluorescence (excitation at 355 nm and emission at 460 nm) was followed with an automated microtiter plate spectrofluorimeter (Molecular Devices, spectraMAX Gemini). Inhibitor stock solutions were prepared at 20 mM in DMSO, and serial dilutions were made in DMSO (0.7% DMSO in assay). Controls were performed using enzyme alone and enzyme with DMSO. IC50 values were determined graphically using inhibitor concentrations in the linear portion of a plot of inhibition versus log [I] (seven concentrations were tested, and at least two were in the linear range).
T. cruzi cathepsin L-like protease (cruzain), sequence (P25779 123-467): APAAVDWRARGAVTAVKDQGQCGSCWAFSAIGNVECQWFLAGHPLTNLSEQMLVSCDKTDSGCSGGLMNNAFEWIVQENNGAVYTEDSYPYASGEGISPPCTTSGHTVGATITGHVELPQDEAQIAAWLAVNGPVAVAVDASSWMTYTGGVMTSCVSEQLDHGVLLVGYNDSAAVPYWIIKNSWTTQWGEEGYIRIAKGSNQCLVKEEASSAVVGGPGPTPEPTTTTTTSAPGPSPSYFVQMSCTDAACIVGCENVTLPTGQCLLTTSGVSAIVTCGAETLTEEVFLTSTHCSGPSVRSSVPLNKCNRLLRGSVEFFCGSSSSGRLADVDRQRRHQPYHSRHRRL

Another data set concerns T. cruzi (Y strain). In words: Anti-trypanosomal cell culture assay, T. cruzi-infected J774 macrophages. In kind it is cell-based. The conditions noted are these: inhibitor 10 μM, cultures up to 30 days. As to the method:
Drug Screening in Cell Culture. Mammalian cells are routinely cultured in RPMI-1640 medium supplemented with 5-10% heat-inactivated fetal calf serum (FCS) at 37° C. in 5% CO2. The Y strain of T. cruzi is maintained by serial passage in bovine embryo skeletal muscle (BESM) cells. Infectious trypomastigotes are collected from culture supernatants. For drug assays, J774 macrophages were irradiated (5000 rad) and plated onto six-well tissue culture plates 24 h prior to infection with ˜106 trypomastigotes/well. […] Inhibitor stocks (10 mM) in DMSO were stored at 4° C. J774 monolayers treated with a blank containing DMSO are used as a negative control, and monolayers treated with a known trypanocidal inhibitor, 10 μM N-methyl piperazine-Phe-homoPhe-vinyl sulfone phenyl (N-Pip-F-hF-VSPh) acted as a positive control (Engel et al., J. Exp. Med., 188:725-734 (1998)). RPMI medium with or without inhibitor is replaced every 48 h. Cultures are maintained for up to 30 days and monitored daily by contrast phase microscopy. […] The comparative effectiveness of each inhibitor was estimated from plots of the duration of the intracellular cycle of T. cruzi (days) in treated vs untreated control wells.

Another data set has as its target cruzain (Trypanosoma cruzi, UniProt P25779). In kind it is biochemical. As to conditions: incubation 90 s to 24 h. The method, then: The time dependence of inhibition was determined by incubating cruzain with inhibitors, DMSO, or enzyme alone at room temperature for time points between 90 s and 24 h. The enzymatic activity was determined as above.
A known irreversible inhibitor, K002 (morpholino urea-Phe-homoPhe-vinyl sulfone benzene; Axys Pharmaceuticals Inc., South San Francisco, Calif.), and a known reversible covalent inhibitor, leupeptin, were used as controls for the thio semicarbazones.

Where [2] appears, read: 5 min incubation, room temperature, pH 5.50, read-out: IC50 against cruzain.

Molecules are shown by their SMILES. Where two headings read alike, the source gives them in different places.

What is called melting point is the temperature of the solid-liquid transition. What is called IC50 is the concentration that inhibits the measured activity by half.

cruzain, sequence (P25779 123-467): as above

`CCC(=NNC(N)=S)c1ccc2cc(OC)ccc2c1` [Compound 1k, 6′-Methoxy-2′-propiononaphthone Thio Semicarbazone] displayed a melting point of 170.5 to 171.2 °C.

In turn, `CN(C)c1ccc(C=NNC(N)=S)c2ccccc12` [Compound 1l, 4-Dimethylamino-1-naphthaldehyde Thio Semicarbazone] returned a melting point of 170.5 to 171.2 °C.

`Cn1cc(C=NNC(N)=S)c2ccccc21` [Compound 1m, 1-Methylindole-3-carboxaldehyde Thio Semicarbazone]: the melting point was 200.3 to 201.2 °C.

Compound `CCC(=NNC(N)=S)c1cccc(Cl)c1` [Compound 2a, 3′-Chloropropiophenone Thio Semicarbazone] displayed an IC50 in data set [1] of 220 nM. Further, the “effect on T. cruzi in cell culture (trypanocidal / trypanostatic / inactive)” value with T. cruzi (Y strain) is recorded as “trypanocidal”.

Regarding `CCC(=NNC(N)=S)c1cccc(C(F)(F)F)c1` [Compound 2b, 3′-Trifluoromethylpropiophenone Thio Semicarbazone], the “cruzain inhibitory activity, in words” value in data set [1] was “better IC50 values than 1i”. Also, the IC50 in data set [1] (setting [2]) was found to be 50 nM. For the same compound, the “effect on T. cruzi in cell culture (trypanocidal / trypanostatic / inactive)” value with T. cruzi (Y strain) was “trypanocidal”.

Compound `CCC(=NNC(N)=S)c1cccc(F)c1` [Compound 2c, 3′-Fluoropropiophenone Thio Semicarbazone] came in with a melting point of 138.8 to 139.5 °C.

`CCC(=NNC(N)=S)c1ccccc1` [Compound 2d, Propiophenone Thio Semicarbazone]: the melting point was in the range of 116.8 to 117.9 °C. Also, the “drop / loss of activity compared to 1i (cruzain)” value in data set [1] (compared to 1i) is listed as “at least 2 orders of magnitude”.

`CCC(=NNC(N)=S)c1ccc(Br)cc1` [Compound 2e, 4′-Bromopropiophenone Thio Semicarbazone] had a melting point of 171.3 to 173 °C.

On to `CCC(=NNC(N)=S)c1ccc(Cl)cc1` [Compound 2f, 4′-Chloropropiophenone Thio Semicarbazone], for which the melting point lay within 175.1 to 176.8 °C.

The compound `CCC(=NNC(N)=S)c1ccc(OC)cc1` [Compound 2g, 4′-Methoxypropiophenone Thio Semicarbazone] had a melting point of 117.8 to 119.8 °C.

In the case of `CCC(=NNC(N)=S)c1cc(C(F)(F)F)cc(C(F)(F)F)c1` [Compound 2h, 3′,5′-bis(trifluoromethyl)propiophenone Thio Semicarbazone], the “cruzain inhibitory activity, in words” value in data set [1] is reported as “better IC50 values than 1i”. The half-maximal inhibitory concentration (IC50) in data set [1] (setting [2]) was 20 nM. For the same compound, the “increase in activity over 1i (cruzain)” value in data set [1] (compared to 1i) was around 5 fold.

The compound `CCC(=NNC(N)=S)c1ccc(Cl)cc1Cl` [Compound 2j, 2′,4′-Dichloropropiophenone Thio Semicarbazone] displayed a melting point of 171.8 to 173 °C.

As for `CC(=NNC(N)=S)c1ccccc1Br` [Compound 2l, 2′-Bromoacetophenone Thio Semicarbazone], the melting point was 144.5 to 146.2 °C.

`CC(=NNC(N)=S)c1ccccc1Cl` [Compound 2m, 2′-Chloroacetophenone Thio Semicarbazone] showed a melting point of 155.8 to 156.7 °C.

The compound `NC(=S)NN=Cc1ccccc1C(F)(F)F` [Compound 2p, 2-Trifluoromethylbenzaldehyde Thio Semicarbazone] gave a melting point of 248.3 to 249.4 °C.

`NC(=S)NN=Cc1cccc(Br)c1` [Compound 3a, 3-Bromobenzaldehyde Thio Semicarbazone]: the IC50 in data set [1] (setting [2]) amounted to 1300 nM. For the same compound, on cruzain, the “time dependence of cruzain inhibition” value is on record as “time-dependent”.

As for `CC(=NNC(N)=S)c1cccc(C(F)(F)F)c1` [Compound 3d, 3-Trifluoromethylacetophenone Thio Semicarbazone], in the data set on T. cruzi (Y strain), the “effect on T. cruzi in cell culture (trypanocidal / trypanostatic / inactive)” value is recorded as “trypanostatic”.

In the case of `CC(=NNC(N)=S)c1cc(C(F)(F)F)cc(C(F)(F)F)c1` [Compound 3f, 3′,5′-Bis(trifluoromethyl)acetophenone Thio Semicarbazone], in data set [1], the “cruzain inhibitory activity, in words” value is on record as “better IC50 values than 1i”. Further, the “effect on T. cruzi in cell culture (trypanocidal / trypanostatic / inactive)” value in the data set on T. cruzi (Y strain) is given as “trypanostatic”.

Take `CC(=NNC(N)=S)c1ccc(Cl)c(Cl)c1` [Compound 3h, 3′,4′-Dichloroacetophenone Thio Semicarbazone]: in data set [1], the “cruzain inhibitory activity, in words” value is listed as “better IC50 values than 1i”. The “effect on T. cruzi in cell culture (trypanocidal / trypanostatic / inactive)” value in the data set on T. cruzi (Y strain) is “trypanocidal”.

On to `NC(=S)N1CCC(c2cccc(Br)c2)=N1` [Compound 4a, 3-(3-Bromophenyl)-2-pyrazoline-1-thiocarboxamide], for which the melting point lay in the range of 172.9 to 174.5 °C. Further, the “decrease in activity as compared to 1i (cruzain)” value in data set [1] (compared to 1i) worked out at 2 fold. Further, the “time dependence of cruzain inhibition” value on cruzain was “time-dependent”.

With `NC(=S)N1CCC(c2cccc(Cl)c2)=N1` [Compound 4c, 3-(3-Chlorophenyl)-2-pyrazoline-1-thiocarboxamide], in the data set with T. cruzi (Y strain), the “effect on T. cruzi in cell culture (trypanocidal / trypanostatic / inactive)” value was “inactive”.

As to `CC1CN(C(N)=S)N=C1c1cccc(Cl)c1` (stereo not shown) [Compound 4d, 3-(3-Chlorophenyl)-4-methyl-2-pyrazoline-1-thiocarboxamide], the melting point was 131.3 °C (dec.). Also, the “effect on T. cruzi in cell culture (trypanocidal / trypanostatic / inactive)” value in the data set on T. cruzi (Y strain) is recorded as “trypanocidal”.

Compound `NC(=S)N1CCC(c2ccc(Cl)c(Cl)c2)=N1` [Compound 4e, 3-(3,4-Dichlorophenyl)-2-pyrazoline-1-thiocarboxamide] came in with a melting point of 199.3 to 201.4 °C. Besides, in data set [1], the “cruzain inhibitory activity, in words” value is “better than that of 1i”. In the data set on T. cruzi (Y strain), the “effect on T. cruzi in cell culture (trypanocidal / trypanostatic / inactive)” value is given as “trypanocidal”.

For `NC(=S)N1CCC(c2cccc(C(F)(F)F)c2)=N1` [Compound 4g, 3-(3-Trifluoromethylphenyl)-2-pyrazoline-1-thiocarboxamide], the melting point was in the range of 159.2 to 161.1 °C. Moreover, in data set [1], the “cruzain inhibitory activity, in words” value is “better than that of 1i”. Besides, the “effect on T. cruzi in cell culture (trypanocidal / trypanostatic / inactive)” value in the data set on T. cruzi (Y strain) was “inactive”.

`CC1CN(C(N)=S)N=C1c1cccc(C(F)(F)F)c1` (stereo not shown) [Compound 4h, 3-(3-Trifluoromethylphenyl)-4-methyl-2-pyrazoline-1-thiocarboxamide] gave a melting point of 120.8 to 121.9 °C. Besides, the “cruzain inhibitory activity, in words” value in data set [1] is “better than that of 1i”. The “effect on T. cruzi in cell culture (trypanocidal / trypanostatic / inactive)” value with T. cruzi (Y strain) is on record as “trypanocidal”.

In turn, `CCC(=NN(SC)C(N)=O)c1cccc(Br)c1` [Compound 5a, 3′-Bromopropiophenone N-Methyl Thio Semicarbazone] had a melting point of 156.6 to 158 °C.

Regarding `S=C(Nc1cccc(Cl)c1)N1CCC(c2cccc(Br)c2)=N1` [Compound 5d, 3-(3-Bromophenyl)-2-pyrazoline-1-(IL3-chlorophenyl)thiocarboxamide], the melting point fell in the range of 197.5 to 198.8 °C. In addition, in data set [1] (setting [2]), the half-inhibitory concentration (IC50) is 1000 to 2000 nM. In addition, the “effect on T. cruzi in cell culture (trypanocidal / trypanostatic / inactive)” value in the data set on T. cruzi (Y strain) is “no effect on the parasites”.

Consider `FC(F)(F)c1cccc(NC(=S)N2CCC(c3cccc(Cl)c3)=N2)c1` [Compound 5e, 3-(3-Chlorophenyl)-2-pyrazoline-1-(N-3-tri-fluoromethylphenyl)thiocarboxamide], for which, at cruzain, the “time dependence of cruzain inhibition” value is on record as “showed time dependency”.

In turn, `CCCCCCNC(=S)N1CCC(c2cccc(Br)c2)=N1` [Compound 5f, 3-(3-Bromophenyl)-2-pyrazoline-1-(N-hexyl)-thiocarboxamide] displayed a melting point of 117 to 118.2 °C. Besides, in data set [1] (setting [2]), the 50% inhibitory concentration (IC50) lay in the range of 1000 to 2000 nM.

`CC(=NNC(N)=O)c1cccc(Br)c1` [Compound 6b, 3′-Bromoacetophenone Semicarbazone]: the melting point lay in the range of 229.3 to 231.3 °C.

For the compound `NC(=O)NN=Cc1ccc(-c2cccc(Cl)c2)o1` [Compound 6c, 5-(3-Chlorophenyl)-2-furancarboxaldehyde Semicarbazone], the melting point lay within 192.1 to 194.8 °C.

As for `CCC(NNC(N)=S)c1cccc(Br)c1` (stereo not shown) [Compound 7a, 1-(3′-bromophenyl)propylaminothiourea], the “cruzain inhibitory activity, in words” value in data set [1] is “poor activity”. On cruzain, the “time dependence of cruzain inhibition” value is “showed time dependency”.

For `CC(=O)N[C@@H](CC(C)C)C(=O)N[C@@H](CC(C)C)C(=O)N[C@H](C=O)CCCNC(=N)N` [leupeptin, reference compound], on cruzain, the “time dependence of cruzain inhibition” value was “rapidly time-dependent”.
